Several values for one entry are separate records, joined by “and”; a condition that tells them apart may be missing. Equal entries are not always repeated. Structures can show the parent of a compound that is named as a salt.
Molecular target: T1, recombinant human AMPK complex, containing α2β1γ2 (Homo sapiens, UniProt P54646+Q9Y478)
T1 construct: hsAMPKα2-552-His, hsAMPKβ1-2-270 and hsAMPKγ-2-569 respectively; hsAMPKβ1-2-270; hsAMPKγ-2-569; His (C); made in house; host or cells: Spodoptera frugiperda Sf21 (baculovirus)
Assay: AMPK in vitro activation assay (HTRF)
Format: biochemical
Details: for EC50: HTRF, recombinant human α2β1γ2 AMPK, 200 μM ATP, biotinylated ACC-CREBp peptide, repeat determinations on separate lines; for Emax: potentiation of AMPK activity as percent over the basal signal (without compound)
Outline: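 HTRF phosphorylation read-out (Eu-cryptate anti-pS133-CREB, streptavidin-XL665) after a 45 min, 37° C kinase step. This step was initiated by a solution with 200 μM ATP and 2 or 0.08 μM biotinylated ACC-CREBp peptide. Beforehand, compound sat 30 min at room temperature with baculovirus/Sf21 α2β1γ2 in pH 7.0 HEPES buffer; EC50 derived from activation over basal.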

T1 sequence (P54646 2-552): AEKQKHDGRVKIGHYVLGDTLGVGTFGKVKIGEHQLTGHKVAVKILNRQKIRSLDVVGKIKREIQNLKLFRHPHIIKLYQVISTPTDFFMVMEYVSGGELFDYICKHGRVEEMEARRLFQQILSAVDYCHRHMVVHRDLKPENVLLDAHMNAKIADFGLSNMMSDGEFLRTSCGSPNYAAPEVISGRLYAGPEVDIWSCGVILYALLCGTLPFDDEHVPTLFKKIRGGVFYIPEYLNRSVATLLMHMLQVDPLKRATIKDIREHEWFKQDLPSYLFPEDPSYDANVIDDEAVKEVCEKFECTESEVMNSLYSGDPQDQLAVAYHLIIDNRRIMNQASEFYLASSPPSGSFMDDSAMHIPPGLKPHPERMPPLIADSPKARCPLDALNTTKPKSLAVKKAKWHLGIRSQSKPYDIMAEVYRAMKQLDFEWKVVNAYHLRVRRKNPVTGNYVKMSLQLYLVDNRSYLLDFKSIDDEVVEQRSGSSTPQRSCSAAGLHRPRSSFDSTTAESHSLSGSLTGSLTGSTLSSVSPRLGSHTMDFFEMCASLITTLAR
T1 sequence (Q9Y478 2-270): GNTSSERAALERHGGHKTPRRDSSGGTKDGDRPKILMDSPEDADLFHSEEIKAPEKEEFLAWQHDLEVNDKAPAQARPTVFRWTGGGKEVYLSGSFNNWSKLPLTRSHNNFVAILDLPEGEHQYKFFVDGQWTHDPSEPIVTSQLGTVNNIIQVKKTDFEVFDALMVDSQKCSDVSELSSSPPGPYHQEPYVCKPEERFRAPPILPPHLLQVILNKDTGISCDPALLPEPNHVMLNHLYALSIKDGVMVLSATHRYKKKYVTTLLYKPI
T1 sequence (Q9UGJ0 2-569 partner limits assumed): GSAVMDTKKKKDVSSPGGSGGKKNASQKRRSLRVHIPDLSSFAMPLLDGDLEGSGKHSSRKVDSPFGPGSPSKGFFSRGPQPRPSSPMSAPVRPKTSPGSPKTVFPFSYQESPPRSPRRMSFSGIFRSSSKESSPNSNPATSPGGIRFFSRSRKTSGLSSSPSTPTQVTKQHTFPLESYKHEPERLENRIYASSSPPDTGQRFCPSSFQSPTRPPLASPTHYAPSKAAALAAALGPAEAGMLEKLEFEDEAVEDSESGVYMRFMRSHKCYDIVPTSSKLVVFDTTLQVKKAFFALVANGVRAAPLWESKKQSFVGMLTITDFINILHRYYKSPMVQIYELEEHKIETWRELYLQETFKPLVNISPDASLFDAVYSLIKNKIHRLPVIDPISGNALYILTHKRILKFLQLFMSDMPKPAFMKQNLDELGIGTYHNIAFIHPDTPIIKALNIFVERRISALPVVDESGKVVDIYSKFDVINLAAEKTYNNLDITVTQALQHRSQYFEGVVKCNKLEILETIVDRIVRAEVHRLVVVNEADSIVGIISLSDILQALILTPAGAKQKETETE

EC50 | Emax | Structure (SMILES)
0.6 nM | 141% | O=C1Nc2cc(Cl)c(-c3ccc(C4(CO)CC4)cc3)cc2C1=C(O)c1cc2cccnc2o1 [Compound 157, 6-chloro-3-[furo[2,3-b]pyridin-2-yl(hydroxy)methylene]-5-[4-[1-(hydroxymethyl)cyclopropyl]phenyl]indolin-2-one]
0.9 nM | 210% | O=C1Nc2cc(Cl)c(-c3ccc(C4(CO)CC4)cc3)cc2C1=C(O)c1cc(F)cc(F)c1 [Compound 144, 6-chloro-3-[(3,5-difluorophenyl)hydroxy-methylene]-5-[4-[1-(hydroxymethyl)cyclopropyl]phenyl]indolin-2-one]
41 nM | 185% | COc1c(F)cc(C(O)=C2C(=O)Nc3cc(Cl)c(-c4ccc(N5CCOCC5)cc4)cc32)cc1Cl [Compound 97, 6-chloro-3-[(3-chloro-5-fluoro-4-methoxy-phenyl)hydroxy-methylene]-5-(4-morpholinophenyl)indolin-2-one]
2 nM | 229% | O=C1Nc2cc(Cl)c(-c3ccc(C4(CO)CC4)cc3)cc2C1=C(O)c1ccc(F)cc1F [Compound 141, 6-chloro-3-[(2,4-difluorophenyl)hydroxy-methylene]-5-[4-[1-(hydroxymethyl)cyclopropyl]phenyl]indolin-2-one]
0.3 nM | 295% | O=C1Nc2cc(Cl)c(-c3ccc(C4(CO)CC4)cc3)cc2C1=C(O)c1ccco1 [Compound 126, 6-chloro-3-[2-furyl(hydroxy)methylene]-5-[4-[1-(hydroxymethyl)cyclopropyl]phenyl]indolin-2-one]
4 nM | 143% | O=C1Nc2cc(Cl)c(-c3ccc(C4(CO)CC4)cc3)cc2C1=C(O)c1cccs1 [Compound 114, 6-chloro-5-[4-[1-(hydroxymethyl)cyclopropyl]phenyl]-3-[hydroxy(2-thienyl)methylene]indolin-2-one]
0.6 nM | 165% | COc1cccc(-c2ccc(-c3cc4c(cc3Cl)NC(=O)C4=C(O)c3cc(OC(C)C)no3)cc2)c1O [Compound 109, 6-chloro-3-[hydroxy-(3-isopropoxyisoxazol-5-yl)methylene]-5-[4-(2-hydroxy-3-methoxy-phenyl)phenyl]indolin-2-one]
18 nM | 218% | COc1cc(C(O)=C2C(=O)Nc3cc(Cl)c(-c4ccc(C5CC(OC)C5)cc4)cc32)on1 (centres unmarked) [Compound 165, 6-chloro-3-[hydroxy-(3-methoxyisoxazol-5-yl)methylene]-5-[4-(3-methoxycyclobutyl)phenyl]indolin-2-one]
0.5 nM | 130% | COc1cc(C(O)=C2C(=O)Nc3cc(Cl)c(-c4ccc(C5(CO)CC5)cc4)cc32)ccn1 [Compound 158, 6-chloro-3-[hydroxy-(2-methoxy-4-pyridyl)methylene]-5-[4-[1-(hydroxymethyl)cyclopropyl]phenyl]indolin-2-one]
1 nM | 151% | Cc1cc(C(O)=C2C(=O)Nc3cc(Cl)c(-c4ccc(C5(CO)CC5)cc4F)cc32)on1 [Compound 85, 6-chloro-5-[2-fluoro-4-[1-(hydroxymethyl)cyclopropyl]phenyl]-3-[hydroxy-(3-methylisoxazol-5-yl)methylene]indolin-2-one]
9 nM | 373% | O=C1Nc2cc(Cl)c(-c3ccc(C4(CO)CC4)cc3)cc2C1=C(O)c1ccc(Cl)s1 [Compound 130, 6-chloro-3-[(5-chloro-2-thienyl)hydroxy-methylene]-5-[4-[1-(hydroxymethyl)cyclopropyl]phenyl]indolin-2-one]
0.1 nM | 155% | O=C1Nc2cc(Cl)c(-c3ccc(C4(CO)CC4)cc3)cc2C1=C(O)c1cc(C2CC2)no1 [Compound 106, 6-chloro-3-[(3-cyclopropylisoxazol-5-yl)hydroxy-methylene]-5-[4-[1-(hydroxymethyl)cyclopropyl]phenyl]indolin-2-one]
1 nM | 185% | O=C1Nc2cc(Cl)c(-c3ccc(C4CC(O)C4)cc3)cc2C1=C(O)c1cc(C2CC2)no1 (centres unmarked) [Compound 174, 6-chloro-3-[(3-cyclopropylisoxazol-5-yl)hydroxy-methylene]-5-[4-(3-hydroxycyclobutyl)phenyl]indolin-2-one]
15 nM | 107% | CC(=O)NCCOc1ccc(-c2cc3c(cc2Cl)NC(=O)C3=C(O)c2cc(C)no2)cc1 [Compound 104, N-[2-[4-[6-chloro-3-[hydroxy-(3-methylisoxazol-5-yl)methylene]-2-oxo-indolin-5-yl]phenoxy]ethyl]acetamide]

The next lines start with the compound.

Structure (SMILES) | EC50 | Emax
COc1ccc(C(O)=C2C(=O)Nc3cc(Cl)c(-c4ccc(-c5cccc(OC)c5O)cc4)cc32)cc1F [Compound 84, 6-chloro-3-[(3-fluoro-4-methoxy-phenyl)hydroxy-methylene]-5-[4-(2-hydroxy-3-methoxy-phenyl)phenyl]indolin-2-one] | 0.6 nM and 1 nM | 170%
Cc1cc(C(O)=C2C(=O)Nc3cc(Cl)c(-c4ccc(O)c(F)c4)cc32)on1 [Compound 44, 6-Chloro-5-(3-fluoro-4-hydroxy-phenyl)-3-[1-hydroxy-1-(3-methyl-isoxazol-5-yl)-methylidene]-1,3-dihydro-indol-2-one] | 470 nM | 165%
Cc1cc(C(O)=C2C(=O)Nc3cc(F)c(-c4ccc(N5CCOCC5)cc4)cc32)on1 [Compound 29, 6-Fluoro-3-[1-hydroxy-1-(3-methyl-isoxazol-5-yl)-methylidene]-5-(4-morpholin-4-yl-phenyl)-1,3-dihydro-indol-2-one] | 58 nM | 157%
Cc1cc(C(O)=C2C(=O)Nc3cc(Cl)c(-c4ccc(N5CCOCC5)cc4)cc32)on1 [Compound 14, 6-Chloro-3-[1-hydroxy-1-(3-methyl-isoxazol-5-yl)-methylidene]-5-(4-morpholin-4-yl-phenyl)-1,3-dihydro-indol-2-one] | 38 nM | 283%
Cc1cc(C(O)=C2C(=O)Nc3cc(Cl)c(-c4ccc(C5CC5)cc4)cc32)on1 [Compound 22, 6-Chloro-5-(4-cyclopropyl-phenyl)-3-[1-hydroxy-1-(3-methyl-isoxazol-5-yl)-methylidene]-1,3-dihydro-indol-2-one] | 250 nM | 147%
Cc1cc(C(O)=C2C(=O)Nc3cc(F)c(-c4ccc(C5(CO)CC5)cc4)cc32)on1 [Compound 72, 6-Fluoro-5-[4-(1-hydroxymethyl-cyclopropyl)phenyl]-3-[1-hydroxy-1-(3-methyl-isoxazol-5-yl)methylidene]-1,3-dihydro-indol-2-one] | 2 nM | 159%
Cc1cc(C(O)=C2C(=O)Nc3cc(Cl)c(-c4ccc(-c5csc(N)n5)cc4)cc32)on1 [Compound 37, 5-[4-(2-Amino-thiazol-4-yl)-phenyl]-6-chloro-3-[1-hydroxy-1-(3-methyl-isoxazol-5-yl)-methylidene]-1,3-dihydro-indol-2-one] | 37 nM | 192%
Cc1cc(C(O)=C2C(=O)Nc3cc(C)c(-c4ccc(N5CCOCC5)cc4)cc32)on1 [Compound 31, 3-[1-Hydroxy-1-(3-methyl-isoxazol-5-yl)-methylidene]-6-methyl-5-(4-morpholin-4-yl-phenyl)-1,3-dihydro-indol-2-one] | 540 nM | 147%
Cc1cc(C(O)=C2C(=O)Nc3cc(Cl)c(-c4ccc(OCCN5CCOCC5)cc4)cc32)on1 [Compound 82, 6-chloro-3-[hydroxy-(3-methylisoxazol-5-yl)methylene]-5-[4-(2-morpholinoethoxy)phenyl]indolin-2-one hydrochloride] | 280 nM | 130%
Cc1cc(C(O)=C2C(=O)Nc3cc(Cl)c(-c4ccc(Cl)cc4)cc32)on1 [Compound 63, 6-Chloro-5-(4-chloro-phenyl)-3-[1-hydroxy-1-(3-methyl-isoxazol-5-yl)-methylidene]-1,3-dihydro-indol-2-one] | 4020 nM | 134%
COc1cccc(C(O)=C2C(=O)Nc3cc(Cl)c(-c4ccc(N5CCOCC5)cc4)cc32)c1 [Compound 50, 6-Chloro-3-[1-hydroxy-1-(3-methoxy-phenyl)-methylidene]-5-(4-morpholin-4-yl-phenyl)-1,3-dihydro-indol-2-one] | 40 nM | 
COc1ccc(-c2cc3c(cc2Cl)NC(=O)C3=C(O)c2cc(C)no2)cc1F [Compound 55, 6-Chloro-5-(3-fluoro-4-methoxy-phenyl)-3-[1-hydroxy-1-(3-methyl-isoxazol-5-yl)-methylidene]-1,3-dihydro-indol-2-one] | 430 nM | 174%
O=C1Nc2cc(Cl)c(-c3ccc(N4CCOCC4)cc3)cc2C1=C(O)c1ccccc1 [Compound 43, 6-Chloro-3-[1-hydroxy-1-phenyl-methylidene]-5-(4-morpholin-4-yl-phenyl)-1,3-dihydro-indol-2-one] | 220 nM | 170%
O=C1Nc2cc(Cl)c(-c3ccc(C4(CO)CC4)cc3)cc2C1=C(O)c1ccccc1F [Compound 46, 6-Chloro-3-[1-(2-fluoro-phenyl)-1-hydroxy-methylidene]-5-[4-(1-hydroxymethyl-cyclopropyl)-phenyl]-1,3-dihydro-indol-2-one] | 6 nM | 95%
COc1cc(C(O)=C2C(=O)Nc3cc(Cl)c(-c4ccc(-c5cccc(OC)c5O)cc4)cc32)on1 [Compound 12] | 1 nM | 172%
Cc1cc(C(O)=C2C(=O)Nc3cc(Cl)c(-c4ccc(OCCCN5CCNCC5)cc4)cc32)on1 [Compound 69, 6-Chloro-3-[1-hydroxy-1-(3-methyl-isoxazol-5-yl)methylidene]-5-[4-(3-piperazin-1-yl-propoxy)phenyl]-1,3-dihydro-indol-2-one, hydrochloride] | 8 nM | 134%
